Laboratory results reported in patent US6667387B1, “HCV core peptides” (priority 1992, dated 2003).
Ends that are not written are not given here. * marks the point of attachment. Biotin = O=C1N[C@H]2[C@H](CS[C@H]2CCCCC(=O)*)N1

Tested on: antibodies to HTLV-I and HTLV-II (serum panel PRP203)
Assay: Line immunoassay (LIA) with biotinylated HTLV-I and HTLV-II peptides
Format: binding, human
Settings: sample nr. 12 of panel PRP203
From the text: A number of these peptides were used to prepare LIA strips for the detection of antibodies of HTLV. Several of the peptides, such as I-p19 and I-gp46-4, which are derived from regions of the HTLV-I p19 gag protein and envelope glycoprotein, respectively, are expected to be recognized by antibodies produced as a result of both HTLV-I and HTLV-II infection since these sequences are highly homologous in the two viruses. Others, such as I-gp46-3, I-gp46-6 for HTLV-I, and II-gp52-1, II-gp52-2 and II-gp52-3 for HTLV-II may be useful for detection of antibodies as well as discrimination. Since there is some homology between the HTLV-I and HTLV-II sequences, cross-reactions are to be expected. Nevertheless, the intensities of the reactions to the various peptides should reveal the identity of the virus to which the antibodies were produced.
The LIA strips were evaluated using a commercially available serum panel (Boston Biomedia Inc., mixed titer panel, PRP203). The test results are in complete agreement with the analysis provided by distributor. […] This sample could not be differentiated using these peptides, nor could this sample be differentiated by any other test used by the distributor of the serum panel. Sample nr. […] In an additional experiment, an ELISA was performed using all 10 of the biotinylated HTLV-I and HTLV-II peptides. […]

Substance: Bio Gly Gly Pro Pro Pro Pro Ser Ser Pro Thr His Asp Pro Pro Asp Ser Asp Pro Gln Ile Pro Pro Pro Tyr Val Glu Pro Thr Ala Pro Gln Val Leu (Biotin-GGPPPPSSPTHDPPDSDPQIPPPYVEPTAPQVL) [I-p19]
- LIA reaction: positive reaction
